# Laboratory results published in patent publication US20230053864A1, “Methods for Identifying Modulators of G Protein-Coupled Receptors” (University of Miami, priority 2019, published 2023).
# “And” between values parts separate entries of the source, which are not always exact repeats. Equal entries are not always repeated. “Also recorded” adds a separate entry of the source.
# Legend:
# ADRA2B = target: T1, ADRA2B (Homo sapiens, UniProt P18089); test: dCyFIRscreen profiling and titrations in yeast GPCR-Gα reporter strains; format: cell-based
# T1 construct: expressed in transfected cells; host or cells: Saccharomyces cerevisiae BY4741-derived GPCR-Gα reporter strains, X-2 landing pad
# T1 sequence (P18089 1-450): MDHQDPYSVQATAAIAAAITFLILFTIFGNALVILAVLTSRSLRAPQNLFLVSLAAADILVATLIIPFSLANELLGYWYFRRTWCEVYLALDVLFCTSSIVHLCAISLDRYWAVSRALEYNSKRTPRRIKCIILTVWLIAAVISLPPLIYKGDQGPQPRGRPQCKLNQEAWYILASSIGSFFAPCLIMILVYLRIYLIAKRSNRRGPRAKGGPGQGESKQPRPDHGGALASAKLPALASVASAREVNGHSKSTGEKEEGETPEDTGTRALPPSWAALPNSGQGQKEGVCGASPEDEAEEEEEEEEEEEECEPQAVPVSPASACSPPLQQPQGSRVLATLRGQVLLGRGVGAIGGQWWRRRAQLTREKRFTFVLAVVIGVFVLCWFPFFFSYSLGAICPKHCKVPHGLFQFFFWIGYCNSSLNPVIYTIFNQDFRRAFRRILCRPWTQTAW
# Protocol: dCyFIRscreen protocol. […] Cells were normalized to an OD of 0.1 in SCD LoFo pH=7.0 using a Biomek NXp liquid-handling robot. […] 36 μL normalized cells were distributed to each well containing the appropriate 10× ligand/vehicle. Plates were sealed with a breathable cover (Diversified Biotech; BERM-2000) and incubated at 30° C. […] Absorbance readings were also collected after 18 hours using the same instrument (22 flashes/well, excitation filter: 600 nm).
# Titration Analyses. All titration curves were analyzed using Prism software and the pharmacological fitting function log(agonist) vs. response—Variable slope (four parameters) (GraphPad Software, San Diego, USA).
# MTNR1A = target: T2, MTNR1A (Homo sapiens, UniProt P48039); test: as above; format: cell-based
# T2 construct: expressed in transfected cells; host or cells: Saccharomyces cerevisiae BY4741-derived GPCR-Gα reporter strains, X-2 landing pad
# Protocol: (§1) Individual Gα reporter strains were grown in SCD LoFo pH=7.0 at 30° C. to an OD=1.0 in a 2.0 mL 96-well DeepWell block (Greiner; 780271-FD). Cells were normalized to an OD of 0.1 in SCD LoFo pH=7.0 using a Biomek NXp liquid-handling robot. 10× ligand/vehicle stocks were prepared (see Table 2) and 4 μL were distributed to each well of a 384-well plate (Greiner; 781096) in quadruplicate using a Biomek NXp. 36 μL normalized cells were distributed to each well containing the appropriate 10× ligand/vehicle. Plates were sealed with a breathable cover (Diversified Biotech; BERM-2000) and incubated at 30° C. Fluorescence readings were collected after 18 hours using a plate reader (ClarioStar, BMG LabTech, Offenburg, Germany) (bottom read, 10 flashes/well, excitation filter: 430-10 nm, dichroic filter: LP 458 nm, emission filter: 482-16 nm, gain=1300 (1500 for FIG. 1B.)). Absorbance readings were also collected after 18 hours using the same instrument (22 flashes/well, excitation filter: 600 nm).
# (§2) All titration curves were analyzed using Prism software and the pharmacological fitting function log(agonist) vs. response—Variable slope (four parameters) (GraphPad Software, San Diego, USA).
# MTNR1B = target: T3, MTNR1B (Homo sapiens, UniProt P49286); test: dCyFIRscreen profiling in yeast GPCR-Gα reporter strains; format: cell-based
# T3 construct: expressed in transfected cells; host or cells: Saccharomyces cerevisiae BY4741-derived GPCR-Gα reporter strains, X-2 landing pad
# T3 sequence (P49286 1-362): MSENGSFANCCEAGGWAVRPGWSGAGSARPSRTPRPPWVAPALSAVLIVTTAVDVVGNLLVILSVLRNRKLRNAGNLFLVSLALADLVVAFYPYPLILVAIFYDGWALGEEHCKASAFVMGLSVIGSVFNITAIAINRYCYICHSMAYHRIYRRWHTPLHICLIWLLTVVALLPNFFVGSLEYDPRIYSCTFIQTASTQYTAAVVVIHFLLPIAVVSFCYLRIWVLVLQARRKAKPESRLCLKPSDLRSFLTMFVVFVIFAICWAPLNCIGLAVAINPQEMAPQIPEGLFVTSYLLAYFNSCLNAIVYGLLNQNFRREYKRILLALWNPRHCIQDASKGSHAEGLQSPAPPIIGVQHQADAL
# Protocol: as §1, §2
# HCAR3 = HCAR3 (Homo sapiens, UniProt P49019); test: dCyFIRscreen profiling and titrations in yeast GPCR-Gα reporter strains; format: cell-based; design: expressed in transfected cells
# Protocol: as §1, §2
# LPAR1 = target: T4, LPAR1 (Homo sapiens, UniProt Q92633); test: as above; format: cell-based
# T4 construct: expressed in transfected cells; host or cells: Saccharomyces cerevisiae BY4741-derived GPCR-Gα reporter strains, X-2 landing pad
# Protocol: as §1, §2
# GPR35 = target: T5, GPR35 (Homo sapiens, UniProt Q9HC97); test: as above; format: cell-based
# T5 construct: expressed in transfected cells; host or cells: Saccharomyces cerevisiae BY4741-derived GPCR-Gα reporter strains, X-2 landing pad
# Protocol: as §1, §2
# ADORA2A = target: T6, ADORA2A (Homo sapiens, UniProt P29274); test: as above; format: cell-based
# T6 construct: expressed in transfected cells; host or cells: Saccharomyces cerevisiae BY4741-derived GPCR-Gα reporter strains, X-2 landing pad
# Protocol: as §1, §2
# GPR4 = target: T7, GPR4 (Homo sapiens, UniProt P46093); test: dCyFIRscreen profiling in yeast GPCR-Gα reporter strains; format: cell-based
# T7 construct: expressed in transfected cells; host or cells: Saccharomyces cerevisiae BY4741-derived GPCR-Gα reporter strains, X-2 landing pad
# Protocol: as §1
# LPAR4 = target: T8, LPAR4 (Homo sapiens, UniProt Q99677); test: as above; format: cell-based
# T8 construct: expressed in transfected cells; host or cells: Saccharomyces cerevisiae BY4741-derived GPCR-Gα reporter strains, X-2 landing pad
# Protocol: as §1
# HCAR2 = target: T9, HCAR2 (Homo sapiens, UniProt Q8TDS4); test: as above; format: cell-based
# T9 construct: expressed in transfected cells; host or cells: Saccharomyces cerevisiae BY4741-derived GPCR-Gα reporter strains, X-2 landing pad
# Protocol: as §1
# GPR68 = target: T10, GPR68 (Homo sapiens, UniProt Q15743); test: dCyFIRscreen profiling and titrations in yeast GPCR-Gα reporter strains; format: cell-based
# T10 construct: expressed in transfected cells; host or cells: Saccharomyces cerevisiae BY4741-derived GPCR-Gα reporter strains, X-2 landing pad
# Protocol: as §1, §2
# [1] = tested on: 20 GPCRs (200 GPCR-Gα strains); test: control dCyFIRscreen profiles against 20 GPCRs (200 GPCR-Gα strains); format: cell-based, human; settings: 20 GPCRs incl. all 15 constitutively active receptors
# Protocol: (§3) dCyFIRscreen protocol. Individual Gα reporter strains were grown in SCD LoFo pH=7.0 at 30° C. to an OD=1.0 in a 2.0 mL 96-well DeepWell block (Greiner; 780271-FD). Cells were normalized to an OD of 0.1 in SCD LoFo pH=7.0 using a Biomek NXp liquid-handling robot. 10× ligand/vehicle stocks were prepared (see Table 2) and 4 μL were distributed to each well of a 384-well plate (Greiner; 781096) in quadruplicate using a Biomek NXp. 36 μL normalized cells were distributed to each well containing the appropriate 10× ligand/vehicle. Plates were sealed with a breathable cover (Diversified Biotech; BERM-2000) and incubated at 30° C. Fluorescence readings were collected after 18 hours using a plate reader (ClarioStar, BMG LabTech, Offenburg, Germany) (bottom read, 10 flashes/well, excitation filter: 430-10 nm, dichroic filter: LP 458 nm, emission filter: 482-16 nm, gain=1300 (1500 for FIG. 1B.)). Absorbance readings were also collected after 18 hours using the same instrument (22 flashes/well, excitation filter: 600 nm).
# HTR4 = target: T11, HTR4 (Homo sapiens, UniProt Q13639); test: dCyFIRscreen profiling and titrations in yeast GPCR-Gα reporter strains; format: cell-based
# T11 construct: expressed in transfected cells; host or cells: Saccharomyces cerevisiae BY4741-derived GPCR-Gα reporter strains, X-2 landing pad
# Protocol: as §3, §2
# GPR65 = target: T12, GPR65 (Homo sapiens, UniProt Q8IYL9); test: as above; format: cell-based
# T12 construct: expressed in transfected cells; host or cells: Saccharomyces cerevisiae BY4741-derived GPCR-Gα reporter strains, X-2 landing pad
# Protocol: as §1, §2
# CNR2 = target: T13, CNR2 (Homo sapiens, UniProt P34972); test: dCyFIRscreen profiling in yeast GPCR-Gα reporter strains; format: cell-based
# T13 construct: expressed in transfected cells; host or cells: Saccharomyces cerevisiae BY4741-derived GPCR-Gα reporter strains, X-2 landing pad
# Protocol: as §1
# S1PR2 = target: T14, S1PR2 (Homo sapiens, UniProt O95136); test: dCyFIRscreen profiling and titrations in yeast GPCR-Gα reporter strains; format: cell-based
# T14 construct: expressed in transfected cells; host or cells: Saccharomyces cerevisiae BY4741-derived GPCR-Gα reporter strains, X-2 landing pad
# Protocol: as §1, §2
# S1PR1 = target: T15, S1PR1 (Homo sapiens, UniProt P21453); test: as above; format: cell-based
# T15 construct: expressed in transfected cells; host or cells: Saccharomyces cerevisiae BY4741-derived GPCR-Gα reporter strains, X-2 landing pad
# Protocol: as §1, §2
# [2] = tested on: 300-plex of GPCR-Gα reporter strains; test: dCyFIRplex FACS sorting of agonist-treated 300-plex; format: cell-based, Saccharomyces cerevisiae; settings: following agonist treatment
# Protocol: dCyFIRplex protocol. […] 10× ligand/vehicle stocks were added to individual wells of a DeepWell block. The consolidated 300-plex or control strains were then added to each well and grown in the presence of ligand/vehicle overnight, so that each culture would reach an OD=4.0 before dCyFIRplex profiling. Samples were washed with sterile ddH2O and normalized to an OD=2.0 in SCD LoFo pH=7.0. Tracer cells were added to each sample at a 1:301 ratio. The final mixture was then transferred into a glass sample tube (USA Scientific; 1450-2810) and used for cell sorting. A BD FACSAria-II cell sorter was used for all dCyFIRplex experiments to assess mTq2 (405 nm excitation, 450/50 nm emission) and mRuby3 fluorescence (535 nm excitation, 610/20 nm emission). A gating strategy was set using the three control samples (DI P1 mTq2, individual Gα reporter strains lacking an integrated receptor, and DI P1 mRuby3) such that tracer cells and any cell expressing mTq2 was sorted into a 14 mL collection tube (USA Scientific; 1485-2810) containing 500 μL YPD. Samples treated with water or 500 μM adenosine (well-characterized using dCyFIRscreen, inexpensive, and water-soluble) were used to build a standard curve measuring total events in the mRuby3 and mTq2 positive gates. The standard curve from a water-treated 300-plex was used to determine the number of tracer events that would correspond to 15,000 events in the mTq2 gate for a water-treated 300-plex. Each sample was sorted until the standardized tracer count was reached. Sorted cells were enriched by outgrowth in 5 mL YPD at 30° C. with shaking (200 rpm) for 18 hours. Cells were harvested by centrifugation at 3,000×g for 5 min, and resuspended in 1 mL ddH2O. Cells were either processed immediately for qPCR deconvolution or frozen in 100 μL aliquots for storage at −20° C. The set of samples comparatively deconvoluted by qPCR and NanoString methods were derived from aliquots of the same dCyFIRplex experiments. […]
# [3] = titration, yeast GPCR-Gα reporter strain
# T12 sequence (Q8IYL9 whole entry): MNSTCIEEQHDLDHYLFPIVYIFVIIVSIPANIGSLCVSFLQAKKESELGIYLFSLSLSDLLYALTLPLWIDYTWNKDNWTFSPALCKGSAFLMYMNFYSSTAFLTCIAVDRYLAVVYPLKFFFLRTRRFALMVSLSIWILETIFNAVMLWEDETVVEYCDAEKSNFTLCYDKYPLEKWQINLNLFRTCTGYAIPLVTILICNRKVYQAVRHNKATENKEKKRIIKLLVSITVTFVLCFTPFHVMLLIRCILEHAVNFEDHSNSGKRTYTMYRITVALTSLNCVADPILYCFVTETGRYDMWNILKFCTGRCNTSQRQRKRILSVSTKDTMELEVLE
# HCAR3, sequence (P49019 whole entry): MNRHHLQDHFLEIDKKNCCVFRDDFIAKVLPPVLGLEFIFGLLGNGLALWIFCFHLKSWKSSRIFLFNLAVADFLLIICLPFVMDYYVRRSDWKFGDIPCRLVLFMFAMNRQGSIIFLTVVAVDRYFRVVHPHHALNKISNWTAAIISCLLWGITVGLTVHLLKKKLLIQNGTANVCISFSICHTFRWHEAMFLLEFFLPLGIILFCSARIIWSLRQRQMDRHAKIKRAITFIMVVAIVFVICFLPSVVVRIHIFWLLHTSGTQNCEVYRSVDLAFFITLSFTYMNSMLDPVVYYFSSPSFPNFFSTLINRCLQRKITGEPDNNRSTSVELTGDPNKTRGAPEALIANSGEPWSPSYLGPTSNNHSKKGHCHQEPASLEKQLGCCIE
# T10 sequence (Q15743 whole entry): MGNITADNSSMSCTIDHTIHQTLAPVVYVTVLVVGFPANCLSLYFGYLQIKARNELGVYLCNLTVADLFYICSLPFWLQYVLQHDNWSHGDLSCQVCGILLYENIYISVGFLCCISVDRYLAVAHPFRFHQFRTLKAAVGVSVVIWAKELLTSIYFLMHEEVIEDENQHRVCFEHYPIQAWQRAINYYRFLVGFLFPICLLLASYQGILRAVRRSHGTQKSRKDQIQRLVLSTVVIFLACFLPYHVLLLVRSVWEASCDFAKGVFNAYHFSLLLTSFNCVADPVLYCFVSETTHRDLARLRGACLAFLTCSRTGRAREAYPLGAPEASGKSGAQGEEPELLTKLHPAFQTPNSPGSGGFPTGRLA
# T5 sequence (Q9HC97 whole entry): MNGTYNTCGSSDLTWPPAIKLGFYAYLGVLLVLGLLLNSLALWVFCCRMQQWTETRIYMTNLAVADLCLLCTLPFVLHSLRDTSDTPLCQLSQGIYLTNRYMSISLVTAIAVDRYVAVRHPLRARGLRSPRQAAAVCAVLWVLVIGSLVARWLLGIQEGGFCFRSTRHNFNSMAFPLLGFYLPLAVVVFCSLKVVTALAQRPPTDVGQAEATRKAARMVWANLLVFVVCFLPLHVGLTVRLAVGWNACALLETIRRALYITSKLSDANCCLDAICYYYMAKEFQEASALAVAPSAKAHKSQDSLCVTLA
# T2 sequence (P48039 whole entry): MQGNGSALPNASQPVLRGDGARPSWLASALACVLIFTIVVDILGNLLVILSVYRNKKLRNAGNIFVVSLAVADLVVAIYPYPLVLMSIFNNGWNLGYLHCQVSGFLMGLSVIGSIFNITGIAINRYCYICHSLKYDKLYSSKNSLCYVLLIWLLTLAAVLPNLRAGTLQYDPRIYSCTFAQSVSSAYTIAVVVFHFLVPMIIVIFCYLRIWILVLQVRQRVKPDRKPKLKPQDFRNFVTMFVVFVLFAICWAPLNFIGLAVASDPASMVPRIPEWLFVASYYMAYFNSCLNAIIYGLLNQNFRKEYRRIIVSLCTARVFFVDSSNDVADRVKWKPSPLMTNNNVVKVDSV
# T6 sequence (P29274 whole entry): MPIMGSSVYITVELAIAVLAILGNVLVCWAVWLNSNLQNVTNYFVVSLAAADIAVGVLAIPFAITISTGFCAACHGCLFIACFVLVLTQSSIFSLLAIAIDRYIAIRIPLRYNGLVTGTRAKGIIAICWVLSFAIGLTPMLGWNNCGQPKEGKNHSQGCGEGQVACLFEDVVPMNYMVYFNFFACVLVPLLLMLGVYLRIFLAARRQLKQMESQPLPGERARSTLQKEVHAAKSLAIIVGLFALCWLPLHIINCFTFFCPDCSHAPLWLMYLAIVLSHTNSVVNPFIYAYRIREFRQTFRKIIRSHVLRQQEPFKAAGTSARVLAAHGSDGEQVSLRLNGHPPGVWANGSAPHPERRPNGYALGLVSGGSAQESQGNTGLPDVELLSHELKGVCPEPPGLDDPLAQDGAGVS
# T14 sequence (O95136 whole entry): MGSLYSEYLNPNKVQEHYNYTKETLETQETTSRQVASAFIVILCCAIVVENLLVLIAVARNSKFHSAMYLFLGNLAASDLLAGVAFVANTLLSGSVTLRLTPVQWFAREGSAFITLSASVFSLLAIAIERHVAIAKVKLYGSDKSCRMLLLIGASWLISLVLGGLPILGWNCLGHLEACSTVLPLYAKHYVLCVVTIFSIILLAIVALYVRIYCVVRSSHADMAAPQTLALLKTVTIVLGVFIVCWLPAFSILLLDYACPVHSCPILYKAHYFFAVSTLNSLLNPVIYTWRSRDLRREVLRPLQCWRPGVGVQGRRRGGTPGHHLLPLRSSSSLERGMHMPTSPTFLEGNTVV
# T11 sequence (Q13639 whole entry): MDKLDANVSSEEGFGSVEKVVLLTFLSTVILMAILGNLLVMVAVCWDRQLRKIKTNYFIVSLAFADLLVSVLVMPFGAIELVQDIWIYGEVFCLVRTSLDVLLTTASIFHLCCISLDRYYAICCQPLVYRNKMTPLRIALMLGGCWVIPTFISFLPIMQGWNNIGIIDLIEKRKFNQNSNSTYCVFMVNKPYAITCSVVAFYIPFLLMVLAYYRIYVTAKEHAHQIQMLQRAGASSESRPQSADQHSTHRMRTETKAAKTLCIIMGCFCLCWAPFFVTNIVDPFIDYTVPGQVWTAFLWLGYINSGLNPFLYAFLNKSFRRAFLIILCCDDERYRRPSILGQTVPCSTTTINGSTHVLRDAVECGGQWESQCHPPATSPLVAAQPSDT
# T7 sequence (P46093 whole entry): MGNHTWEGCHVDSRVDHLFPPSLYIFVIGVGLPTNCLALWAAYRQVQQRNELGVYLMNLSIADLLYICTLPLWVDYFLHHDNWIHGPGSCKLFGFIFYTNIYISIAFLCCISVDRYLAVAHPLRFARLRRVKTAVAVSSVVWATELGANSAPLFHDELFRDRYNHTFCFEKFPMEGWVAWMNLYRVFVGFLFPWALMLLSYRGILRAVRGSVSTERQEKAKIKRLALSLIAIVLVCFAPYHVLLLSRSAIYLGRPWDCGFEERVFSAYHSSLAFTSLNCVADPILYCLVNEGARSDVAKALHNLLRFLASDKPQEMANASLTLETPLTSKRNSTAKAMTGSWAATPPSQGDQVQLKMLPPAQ
# T9 sequence (Q8TDS4 whole entry): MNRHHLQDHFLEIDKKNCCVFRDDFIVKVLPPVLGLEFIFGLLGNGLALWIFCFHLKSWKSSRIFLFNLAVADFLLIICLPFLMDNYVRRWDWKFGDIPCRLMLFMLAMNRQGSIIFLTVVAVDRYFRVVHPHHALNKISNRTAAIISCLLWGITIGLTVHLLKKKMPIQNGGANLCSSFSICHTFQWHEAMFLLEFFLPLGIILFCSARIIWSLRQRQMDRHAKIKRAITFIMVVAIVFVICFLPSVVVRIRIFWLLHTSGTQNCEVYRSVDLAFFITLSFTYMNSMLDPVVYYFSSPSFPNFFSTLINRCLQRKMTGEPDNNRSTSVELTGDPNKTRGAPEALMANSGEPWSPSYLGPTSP
# T15 sequence (P21453 whole entry): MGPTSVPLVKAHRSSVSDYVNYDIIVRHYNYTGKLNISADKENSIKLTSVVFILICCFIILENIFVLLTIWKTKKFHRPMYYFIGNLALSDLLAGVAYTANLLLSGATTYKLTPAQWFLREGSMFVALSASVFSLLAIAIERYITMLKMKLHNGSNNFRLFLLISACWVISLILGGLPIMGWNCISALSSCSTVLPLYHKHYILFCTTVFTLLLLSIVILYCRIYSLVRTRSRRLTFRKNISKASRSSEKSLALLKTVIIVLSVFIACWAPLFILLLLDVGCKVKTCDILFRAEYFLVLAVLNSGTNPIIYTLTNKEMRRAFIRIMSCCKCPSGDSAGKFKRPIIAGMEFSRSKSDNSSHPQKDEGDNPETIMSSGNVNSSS
# T13 sequence (P34972 whole entry): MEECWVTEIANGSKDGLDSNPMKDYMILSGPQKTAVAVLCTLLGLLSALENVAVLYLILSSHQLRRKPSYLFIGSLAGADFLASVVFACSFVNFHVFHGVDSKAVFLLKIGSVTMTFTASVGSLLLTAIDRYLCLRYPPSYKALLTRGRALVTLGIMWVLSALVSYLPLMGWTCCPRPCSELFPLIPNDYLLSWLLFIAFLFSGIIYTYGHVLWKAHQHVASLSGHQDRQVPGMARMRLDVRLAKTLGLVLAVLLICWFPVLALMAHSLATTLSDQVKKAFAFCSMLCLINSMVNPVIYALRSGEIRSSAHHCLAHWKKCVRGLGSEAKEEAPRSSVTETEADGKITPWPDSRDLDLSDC
# T4 sequence (Q92633 whole entry): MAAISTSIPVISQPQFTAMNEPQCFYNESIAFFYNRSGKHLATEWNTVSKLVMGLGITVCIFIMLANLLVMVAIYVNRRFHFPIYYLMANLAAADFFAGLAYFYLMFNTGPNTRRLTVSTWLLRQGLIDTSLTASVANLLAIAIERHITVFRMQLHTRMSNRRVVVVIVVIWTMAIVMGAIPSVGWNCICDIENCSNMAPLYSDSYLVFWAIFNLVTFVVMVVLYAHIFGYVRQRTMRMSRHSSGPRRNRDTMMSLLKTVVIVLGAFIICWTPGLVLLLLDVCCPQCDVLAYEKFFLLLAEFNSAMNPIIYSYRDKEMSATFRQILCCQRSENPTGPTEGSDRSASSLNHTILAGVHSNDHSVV
molecule,measurement,setting,value
NCCc1c[nH]c2ccc(O)cc12 [serotonin],"activity at ADRA2B in words (mode of action, potency range)",ADRA2B,micromolar interactions
same,"activity at MTNR1A in words (mode of action, potency range)",MTNR1A,micromolar interactions
same,EC50,MTNR1A; [3],60 µM
same,activity at MTNR1B in words (mode of action),MTNR1B,not find that serotonin agonized
"C[C@]12CC[C@H](O)CC1=CC[C@@H]1[C@@H]2CC[C@]2(C)C(=O)CC[C@@H]12 [DHEA, dehydroepiandrosterone]","activity at HCAR3 in words (mode of action, potency range)",HCAR3,increase receptor signaling and PAM-agonist and PAMs
same,activity at LPAR1 in words (mode of action),LPAR1,increase receptor signaling
same,"activity at GPR35 in words (mode of action, potency range)",GPR35,increase receptor signaling; also recorded: PAM-agonist
same,activity at ADORA2A in words (mode of action),ADORA2A,increase receptor signaling
same,activity at GPR4 in words (mode of action),GPR4,increase receptor signaling and PAMs
same,activity at LPAR4 in words (mode of action),LPAR4,increase receptor signaling
same,activity at HCAR2 in words (mode of action),HCAR2,increase receptor signaling
same,activity at GPR68 in words (mode of action),GPR68,increase receptor signaling and PAMs
C[C@]12CC[C@H](OS(=O)(=O)O)CC1=CC[C@@H]1[C@@H]2CC[C@]2(C)C(=O)CC[C@@H]12 [DHEA-S],response in control dCyFIRscreen profiles,[1],Neither of these ligands elicited responses
NCCc1c[nH]c2ccccc12 [tryptamine],"activity at ADRA2B in words (mode of action, potency range)",ADRA2B,did activate
same,EC50 at ADRA2B (in words),ADRA2B; titration,micromolar range
same,"activity at MTNR1A in words (mode of action, potency range)",MTNR1A,did not activate
same,activity at MTNR1B in words (mode of action),MTNR1B,did not activate
same,activity at HTR4 in words (mode of action),HTR4,did activate
same,EC50 at HTR4 (in words),HTR4; titration,micromolar range
O[C@H]1[C@H](O)[C@@H](O)[C@H](O)[C@@H](O)[C@H]1O [inositol],"activity at GPR35 in words (mode of action, potency range)",GPR35,increase receptor signaling; also recorded: PAM-agonist
same,activity at ADORA2A in words (mode of action),ADORA2A,increase receptor signaling; also recorded: NAM-agonist
same,activity at GPR65 in words (mode of action),GPR65,increase receptor signaling and PAM-agonist and PAMs
same,activity at GPR68 in words (mode of action),GPR68,increase receptor signaling and PAM-agonist and PAMs
same,activity at CNR2 in words (mode of action),CNR2,increase receptor signaling
NCCc1ccc(O)c(O)c1 [dopamine],"activity at ADRA2B in words (mode of action, potency range)",ADRA2B,micromolar agonist
lysophosphatidic acid [LPA],"activity at S1PR2 in words (mode of action, potency range)",S1PR2,micromolar interactions; also recorded: higher EC50 values compared to LPAR1
same,"activity at S1PR1 in words (mode of action, potency range)",S1PR1,higher EC50 values compared to LPAR1
"O=C(O)c1cc(=O)c2ccccc2[nH]1 [KYNA, kynurenic acid]","activity at HCAR3 in words (mode of action, potency range)",HCAR3,micromolar interactions; also recorded: orthosteric agonist
same,fold higher affinity (lower EC50) for HCAR3 compared to GPR35,HCAR3; head-to-head titrations of GPR35 and HCAR3,18 fold and 18.6 fold
same,EC50,"HCAR3; titration, yeast GPCR-Gα reporter strain, this study",41 µM
same,fold lower EC50 at HCAR3 than phenylpropanoic acid,HCAR3; versus literature EC50 of phenylpropanoic acid,5.1 fold
same,"activity at ADRA2B in words (mode of action, potency range)",ADRA2B,micromolar interactions; also recorded: negative allosteric modulator
same,"activity at GPR35 in words (mode of action, potency range)",GPR35,activated
same,EC50,GPR35; [3],795 µM
"C[C@H](N)C(=O)NCC(=O)N[C@H]1CSSC[C@@H](C(=O)O)NC(=O)[C@H](CO)NC(=O)[C@H]([C@@H](C)O)NC(=O)[C@H](Cc2ccccc2)NC(=O)[C@H]([C@@H](C)O)NC(=O)[C@H](CCCCN)NC(=O)[C@H](Cc2c[nH]c3ccccc23)NC(=O)[C@H](Cc2ccccc2)NC(=O)[C@H](Cc2ccccc2)NC(=O)[C@H](CC(N)=O)NC(=O)[C@H](CCCCN)NC1=O [SRIF-14, Somatostatin-14]","active cell pool, fraction of cell-sorting events for the 300-plex",[2],1.5%
